Structures can show the parent of a compound that is named as a salt.
| melting point | Structure (SMILES) |
| --- | --- |
| 249 to 256 °C | Cl.O=C(CN1CCC(N2C(=O)OCc3cc(Cl)ccc32)CC1)Nc1ccc(C2CCCCC2)cc1 |
| 238 to 241 °C | Cc1ccc2c(c1)COC(=O)N2C1CCN(CC(=O)Nc2ccc3c(c2)-c2ccccc2C3O)CC1.Cl (stereo not drawn) |
| 247 to 248 °C | CN1CCC(c2c[nH]c3ccc(NS(=O)(=O)c4ccc(-c5ccccc5)cc4)cc23)CC1 [Example 15c, N-[3-(1-methylpiperidin-4-yl)-1H-indol-5-yl]-4-phenylbenzenesulphonamide] |
| 60 to 64 °C | CN(C)CCn1ccc2cc(NS(=O)(=O)c3ccc([N+](=O)[O-])cc3)ccc21 [Example 25e, N-[1-(2-dimethylaminoethyl)-1H-indole-5-yl]-4-nitrobenzenesulfonamide] |
| 76 to 80 °C | CCCN(CCC)CCc1c[nH]c2ccc(NS(=O)(=O)c3cccc4ccccc34)cc12 |
| 141 to 144 °C | COc1ccc(S(=O)(=O)Nc2ccc3c(ccn3CCN(C)C)c2)cc1 [Example 23e, N-[1-(2-dimethylaminoethyl)-1H-indole-5-yl]-4-methoxybenzenesulfonamide] |
| 237 °C | O=C(CN1CCC(N2C(=O)OCc3ccc(Cl)cc32)CC1)Nc1ccc2oc3ccccc3c2c1 |
| 280 °C (dec.) | CN1CCC(c2c[nH]c3ccc(NS(=O)(=O)c4cccc5cccnc45)cc23)CC1 [Example 16c, N-[3-(1-methylpiperidin-4-yl)-1H-indol-5-yl]quinoline-8-sulphonamide] |
| 180 to 182 °C | O=S(=O)(Nc1ccc2[nH]cc(CCN3CCCC3)c2c1)c1ccc2ccccc2c1 |
| 128 to 130 °C | CCN(CC)CCCc1c[nH]c2ccc(NS(=O)(=O)c3ccc4ccccc4c3)cc12 [Example 42c, N-[3-(3-diethylaminopropyl)-1H-indol-5-yl]naphthalene-2-sulphonamide] |
| 97 to 104 °C | CCN(CC)CCn1ccc2cc(NS(=O)(=O)c3ccc4ccccc4c3)ccc21 |
| 234 to 237 °C | Cc1ccc2c(c1)COC(=O)N2C1CCN(CC(=O)Nc2ccc(Oc3ccccc3)cc2)CC1.Cl |
| 147 to 149 °C | Cc1cc2cc(NS(=O)(=O)c3cc(Cl)cc(Cl)c3)ccc2n1CCN(C)C [Example 39e, 3,5-dichloro-N-(1-(2-(dimethylamino)ethyl)-2-methyl-1H-indol-5-yl)-benzenesulfonamide] |
| 148 to 150 °C | O=S(=O)(Nc1ccc2c(ccn2CCCN2CCCCC2)c1)c1ccc(-c2ccccc2)cc1 [Example 47e, 4-phenyl-N-(1-(3-(piperidin-1-yl)propyl)-1H-indol-5-yl)benzenesulfonamide] |
| 270 to 273 °C | Cl.O=C(CN1CCC(N2C(=O)OCc3ccccc32)CC1)Nc1ccc2c(c1)-c1ccccc1C2O (stereo not drawn) |
| 244 to 245 °C (dec.) | CN1CC=C(c2c[nH]c3ccc(NS(=O)(=O)c4cccc5ccccc45)cc23)CC1 |
| 139 to 141 °C | CN(C)CCn1ccc2cc(NS(=O)(=O)c3ccccc3)ccc21 |
| 249 to 253 °C | Cc1cccc2c1N(C1CCN(CC(=O)Nc3ccc(C4CCCCC4)cc3)CC1)C(=O)OC2.Cl |
| 161 to 163 °C | CCN(CC)CCc1c[nH]c2ccc(NS(=O)(=O)c3ccc(-c4ccccc4)cc3)cc12 [Example 5c, N-[3-(2-diethylaminoethyl)-1H-indol-5-yl]-4-phenylbenzenesulphonamide] |
| 68 to 70 °C | CCN(CC)CCn1ccc2cc(NS(=O)(=O)c3c(Cl)nc4sccn34)ccc21 [Example 27e, N-[1-(2-diethylaminoethyl)-1H-indole-5-yl]-6-chloroimidazo[2,1-b]thiazole-5-sulfonamide] |
| 230 to 240 °C (dec.) | CN(C)CCc1c[nH]c2ccc(NS(=O)(=O)c3ccc4c(Cl)cccc4c3)cc12 |

| melting point | Structure (SMILES) |
| --- | --- |
| 145 to 147 °C | CN(C)CCn1ccc2cc(NS(=O)(=O)c3ccc(Cl)s3)ccc21 [Example 9e, N-[1-(2-dimethylaminoethyl)-1H-indole-5-yl]-5-chlorothiophene-2-sulfonamide] |
| 245 to 253 °C | Cc1cccc2c1N(C1CCN(CC(=O)Nc3ccc(Cl)cc3)CC1)C(=O)OC2.Cl |
| 73 to 76 °C | CN(C)CCn1ccc2cccc(NS(=O)(=O)c3c(Cl)nc4sccn34)c21 [Example 4g, N-[1-(2-dimethylaminoethyl)-1H-indole-7-yl]-6-chloroimidazo[2,1-b]thiazole-5-sulfonamide] |
| 90 to 95 °C | CCCN(CCC)CCc1c[nH]c2ccc(NS(=O)(=O)c3sc4ccc(Cl)cc4c3C)cc12 |
| 46 to 49 °C | O=S(=O)(CCc1cccc2ccccc12)Nc1cccc2ccn(CCN3CCCC3)c12 [Example 8g, 2-(naphth-1-yl)-N-(1-(2-(pyrrolidin-1-yl)ethyl)-1H-indol-7-yl)ethansulfonamide] |
| 284 to 285 °C | Cl.O=C(CN1CCC(N2C(=O)OCc3cc(Cl)ccc32)CC1)Nc1ccc(C(F)(F)F)cc1 |
| 262 to 272 °C | Cl.O=C(CN1CCC(N2C(=O)OCc3ccccc32)CC1)Nc1ccccc1 |
| 201 to 203 °C | Cc1c(S(=O)(=O)Nc2ccc3[nH]cc(CCN4CCCC4)c3c2)sc2ccc(Cl)cc12 |
| 255 to 257 °C | CCN(CC)CCc1c[nH]c2ccc(NS(=O)(=O)c3cccc4ccccc34)cc12 (as salt: hydrochloride) |
| 150 to 159 °C | CN(C)CCn1ccc2ccc(NS(=O)(=O)c3cc(Cl)cc(Cl)c3)cc21 [Example 8f, N-[1-(2-Dimethylaminoethyl)-1H-indol-6-yl]-3,5-dichlorobenzenesulfonamide] |
| 54 to 57 °C | CN(C)CCn1ccc2cc(NS(=O)(=O)c3ccc4ccccc4c3)ccc21 |
| 155 to 157 °C | Cc1ccc2c(c1)COC(=O)N2C1CCN(CC(=O)Nc2ccc(C3CCCCC3)cc2)CC1 |
| 147 to 149 °C | Cc1cc2cc(NS(=O)(=O)c3ccc(Oc4ccccc4)cc3)ccc2n1CCN(C)C [Example 38e, N-(1-(2-(dimethylamino)ethyl)-2-methyl-1H-indol-5-yl)-4-phenoxy-benzenesulfonamide] |
| 185 to 187 °C | O=C1OCc2ccccc2N1C1CCN(S(=O)(=O)c2cccc(Cl)c2Cl)CC1 |
| 197 to 198 °C | CCN(CC)CCc1c[nH]c2ccc(NS(=O)(=O)c3c(Cl)nc4sccn34)cc12 |
| 136 °C | Cc1ccc2c(c1)N(C1CCN(CC(=O)Nc3ccc4c(c3)-c3ccccc3C4O)CC1)C(=O)OC2 (stereo not drawn) |
| 230 °C (dec.) | Cc1c(S(=O)(=O)Nc2ccc3[nH]cc(CN4CCN(C)CC4)c3c2)sc2ccc(Cl)cc12 [Example 19c, N-[3-(4-methylpiperazin-1-yl)methyl-1H-indol-5-yl]-5-chloro-3-methylbenzo[b]thiophene-2-sulphonamide] |
| 99 to 102 °C | CN1CCN(Cc2c[nH]c3ccc(NS(=O)(=O)Cc4ccccc4)cc23)CC1 [Example 41c, N-[3-(4-methylpiperazin-1-yl)methyl-1H-indol-5-yl]-α-toluenesulphonamide] |
| 129 to 131 °C | CN1CCN(CCc2c[nH]c3ccc(NS(=O)(=O)c4ccc5ccccc5c4)cc23)CC1 |
| 152 to 154 °C | CN(C)CCc1c[nH]c2ccc(NS(=O)(=O)c3ccc(Oc4ccccc4)cc3)cc12 |
| 163 to 166 °C | CN(C)CCn1ccc2cc(NS(=O)(=O)Cc3ccccc3)ccc21 [Example 15e, N-[1-(2-dimethylaminoethyl)-1H-indole-5-yl]-1-phenylmethanesulfonamide] |

From patent US20070059364A1, “Active substance combination comprising a compound with npy receptor affinity and a compound with 5-ht6 receptor affinity” (Laboratorios Del Dr. Esteve S.A., priority 2003, published 2007)
